The text below walks through data of the SangsterLogP compilation.

The term logD denotes the decadic logarithm of the distribution of all forms, ionised or not, between an organic phase and buffer at a given pH. A word on the logP: it is a log measure of how a compound divides between an organic and an aqueous phase.

Data set [1] is described as follows: method code SF-AS, from DOI: 10.1021/jm00128a017, PMID: 2754702. Particulars: pH 7.4.
Data set [2] is described as follows: method code SF-RC, from DOI: 10.1016/j.nucmedbio.2011.07.009, PMID: 21958846. Conditions: pH 7.4.
Data set [3] can be described thus: method code SF-AS, from Dai, Y.; Jiang, J.; Wang, Z.; Xue, Q. (2007). Experimental and QPSR studies on octanol-water partition coefficient of substituted anilines. J. Struct. Chem, 26(12)1449-1454.
A short description of data set [4]: method code SF-AS, from DOI: 10.1111/j.2042-7158.1980.tb13082.x, PMID: 6110743.
Data set [5] is described as follows: method code SF-HPLC, from Blakemore, C.; Brown, H.; Durant, J.; Emmett, C.; Ganellin, R.; Parsons, E.; Rasmussen, C. (1980). SK&F 92994: a new histamine H2-receptor antagonist. COMMUNICATIONS: Part II. Br. J. Pharmacol., ….
The nature of data set [6]: method code SF-AS, from DOI: 10.1021/jm010817i, PMID: 11806714. Conditions: pH 7.4.
Data set [7] is described as follows: method code SF-AS, from DOI: 10.1016/s0045-6535(00)00181-8, PMID: 11272912.
The nature of data set [8]: method code SF-AS, from DOI: 10.1021/jm00047a013, PMID: 7932583.
Data set [9] is described as follows: method code SF-RC, from DOI: 10.1182/blood.v76.11.2389.bloodjournal76112389, PMID: 2257308. Particulars: pH 7.4.
The nature of data set [10]: method code SF-RC, from DOI: 10.1016/j.nucmedbio.2007.06.005, PMID: 17707813. Conditions: pH 7.4.
Data set [11] can be described thus: method code SF, from DOI: 10.1016/0378-5173(87)90234-1. Particulars: pH 4.0.
The nature of data set [12]: method code SF, from DOI: 10.1016/0006-291x(88)90214-8. Conditions: pH 7.4.
Data set [13] in a line: method code SF-AS, from DOI: 10.1021/jm00162a004, PMID: 3023612.
Data set [14] is described as follows: method code SF-AS, from DOI: 10.1002/jps.2600711105. Conditions: pH 7.4.
Assay in data set [15]: not given
This is another data set of the same source.

Data set [16] in a line: method code SF-GLC,AS, from DOI: 10.2134/jeq1981.00472425001000030028x.
Assay in data set [17]: not given
The source holds these as a separate data set.

Assay in data set [18]: not given
The source holds these as a separate data set.

Data set [19] can be described thus: method code SF-RC, from DOI: 10.1002/jlcr.2580210110. Particulars: pH 7.4.
Data set [20] can be described thus: method code SF-RC, from Audran, M.; Chanal, J.; Marignan, R.; Cousse, H. (1984). Correlations between structure and pharmacokinetic parameters in a series of cresotinamides. International Journal of Pharmaceutics, …. Conditions: pH 1.0.
For data set [21] the following is noted: pH 9.2.
Data set [22] is described as follows: method code SF-GLC, from DOI: 10.1016/0045-6535(95)00311-u.
Data set [23] in a line: method code SF-AS, from DOI: 10.1021/jm00154a021, PMID: 3959031. Conditions: pH 9.0.
A short description of data set [24]: method code SF-AS, from DOI: 10.2116/analsci.13.897. Conditions: pH 2.0.
Data set [25] can be described thus: method code G-HPLC, from DOI: 10.1016/s0021-9673(01)94303-1.
Data set [26] in a line: method code SF-GLC, from DOI: 10.1016/j.chemosphere.2005.05.003, PMID: 15967478.
Data set [27] in a line: method code SF-AS, from DOI: 10.1002/jps.2600650731. Particulars: pH 11.5.
Data set [28] is described as follows: method code SF-AS, from DOI: 10.1016/0005-2744(69)90103-x, PMID: 4387594.
Assay in data set [29]: not given
This is another data set of the same source.

A short description of data set [30]: method code SF-AS, from DOI: 10.1139/y89-042, PMID: 2547502. Particulars: pH 7.4.
Assay in data set [31]: not given
The source holds these as a separate data set.

Data set [32] is described as follows: method code SF-AS, from DOI: 10.1016/j.jct.2016.12.034. Particulars: pH 7.4.
Data set [33] can be described thus: method code SF, from Zhuang, J.; Mo, H.; An, F.; Yang, K. (1993). Determination of the water solubility and n-octanol/water partition coefficient of pesticide N-(2,4-dimethylphenyl)-N'-methylamidine. Huanjing Huaxue, ….
The nature of data set [34]: method code SF-HPLC, from DOI: 10.1016/0378-5173(88)90220-7. Particulars: pH 7.4.
Assay in data set [35]: not given
The source holds these as a separate data set.

A short description of data set [36]: method code SF, from DOI: 10.1093/jnci/60.2.345, PMID: 621753.
The nature of data set [37]: method code SF-GLC, from DOI: 10.1021/je970069v.
The nature of data set [38]: method code SF, from DOI: 10.1016/s0021-9673(01)84246-1.
Data set [39] is described as follows: method code SF-AS, from DOI: 10.1016/0045-6535(95)00267-c.
Data set [40] can be described thus: method code SF, from Ganellin, C. R., & Durant, G. J. (1981). Histamine H2-receptor agonists and antagonists. Burgers Medicinal Chemistry, 3, 487-552. Particulars: pH 9.2.
Assay in data set [41]: not given
This is another data set of the same source.

Assay in data set [42]: not given
This is another data set of the same source.

Data set [43] can be described thus: method code SF-HPLC, from DOI: 10.1002/hlca.19880710534. Conditions: pH 7.4.
Data set [44] is described as follows: method code SF-AS, from DOI: 10.1016/s0006-2952(02)01074-2, PMID: 12392818. Conditions: pH 7.4.

Take `Nc1nc(N)c2ncn([C@H]3C=C[C@@H](CO)O3)c2n1`: the logD in data set [1] is -0.48. `Cc1c(CC(CO)CF)n(C)c(=O)[nH]c1=O` (stereo not given): the logD in data set [2] was -0.56. `CC(C)c1ccc(CO)cc1` gave a logP of 2.49. `CCN(CC)c1ccccc1` gave a logP in data set [3] of 3.11. Regarding `CCCCOc1cccc(O)c1`, the logP in [4] came to 3.03. In data set [5], `COC(=O)c1ccc(CN(C)N=O)cc1` yielded a logP of 1.21. `CC(=O)NCc1c(O)c(=O)cc(C)n1C` gave a logD in [6] of -0.82. As for `COc1cc(C=O)c(OC)c(OC)c1`, the logP in [7] was determined as 1.91. In data set [8], `Cc1cn([C@H]2C[C@H](F)[C@@H](CO)O2)c(=O)[nH]c1=O` yielded a logP of -0.3. For the compound `CCc1c(O)c(=O)ccn1CCOC`, in data set [9], the logD is -0.08. Turning to `Nc1nc(F)c2ncn(CCC(CO)CO)c2n1`, the logD in data set [10] was -0.52.

`O=C(c1ccccc1)n1c(=O)[nH]cc(F)c1=O`: the logD in [11] was found to be 0.8. For the compound `Cc1cn([C@H]2CC[C@@H](CO)O2)c(=O)[nH]c1=O`, the logD in data set [12] is -0.7. The compound `CCCC1(CCC)CCC=[N+]1[O-]` came in with a logP in data set [13] of 0.69. `COCC(O)Cn1c([N+](=O)[O-])nc(C(C)=O)c1C` (stereo not given) showed a logD in [14] of 0.03.

`CC(C)N1C(=O)c2ccccc2NS1(=O)=O` registered a logP in [15] of 1.95. Consider `CCN(CC)c1nc(Cl)nc(NC(C)C)n1`, for which, in data set [16], the logP came to 3.94. With `C1COC(NC(C2CC2)C2CC2)=N1`, in data set [17], the logP was determined as 1.63. Turning to `Cc1ccc(C(C)C)cc1`, the logP in data set [18] was found to be 4.14. In turn, `C1C2CC3CC1CC(C2)C3` yielded a logD in data set [19] of 5.2. `CCNC(=O)c1cc(Cl)cc(C)c1O` registered a logD in data set [20] of 3.55.

`CN(C)CNC(=O)c1ccccc1` displayed a logD in data set [21] of 0.85. With `CCCCCCCCCC(Cl)(Cl)Cl`, the logP in data set [22] came out at 5.85. With `CN1CCN(CCn2cncc2[N+](=O)[O-])CC1`, the logD in data set [23] was -0.2. In data set [24], `CCC(C(=O)O)c1ccccc1` (stereo not given) registered a logD of 2.47. In [25], `CCCCc1ccccc1` registered a logP of 4.29.

Consider `CC1=CCC(C(C)C)C=C1` (stereo not given), for which the lipophilicity (logP) in [26] came out at 4.58. With `CC/N=C(N)/N=C(\N)Nc1ccc(Cl)cc1`, the logD in data set [27] was found to be 2.14. `CCCCNc1ccccc1` registered a logP in data set [28] of 3.58. In the case of `O=C(O)c1cccc2ccccc12`, the logP in data set [29] is 2.78. The compound `Nc1ncnc2c1ncn2[C@@H]1O[C@@H]2COP(=O)(O)O[C@H]2[C@H]1O` registered a logD in data set [30] of -2.96.

Take `CCC(C)C1(CC)C(=O)NC(=O)NC1=O` (stereo not given): the logP in data set [31] came to 1.58.

Consider `CC(=O)Nc1ccc(C=NNC(N)=S)cc1`, for which, in [32], the pH-dependent lipophilicity (logD) was found to be 1.7. `CNC=Nc1ccc(C)cc1C`: the logP in [33] was found to be 2.92.

`CC(=O)N(C)S(=O)(=O)c1ccc(C)cc1` gave a logD in data set [34] of 1.73.

In the case of `CC1(C)CC(C(=O)O)CC(C)(C)N1O`, the logP in data set [35] was determined as 1.25. In data set [36], `O=NN(CCCl)C(=O)NCCCCNC(=O)N(CCCl)N=O` displayed a logP of 0.9. `Cc1ccc(C(C)C)c(Cl)c1Cl` gave a logP in data set [37] of 5.5. For the compound `Nc1nc2c(ncn2[C@@H]2O[C@H](CO)[C@@H](O)[C@H]2O)c(=O)[nH]1`, the log partition coefficient (logP) in [38] was -1.85. The compound `CC(C)(C#N)Nc1nc(Cl)nc(NC2CC2)n1` returned a logP in [39] of 1.99. Turning to `CNC(=S)NCCCCc1nc[nH]c1C`, the logD in data set [40] came to 0.85. In turn, `CNC(=O)Oc1cc(C)c(C)cc1Cl` yielded a logP in [41] of 2.3.

In turn, `Cc1cnc2n(c1=O)CCCC2C` (stereo not given) gave a logP in data set [42] of 0.69.

For `C=CCC1(CC(C)O)C(=O)NC(=O)NC1=O` (stereo not given), the logD in data set [43] was -0.01.

In [44], `CC(=O)c1cc2ccccc2oc1=O` returned a logD of 1.5.
